Measured values taken from patent US20220315554A1, “COMPOUNDS COMPRISING A […] LIGAND AND USE THEREOF” (priority 2019, published 2022).
pIC50, pKd: −log10 of the molar value. Numbered stars: 1 amine (or outer) side, 2 acyl side, 3 side chain; on linkers, the order of the positions; unused ones are H or OH. Bridge positions count the residues as written; N and C are the ends. Square brackets hold non-standard residues; d marks the D form. Peptide text beside a SMILES is read from it. * marks the point of attachment. ξ: configuration not given here. X3 = NC(=O)[C@H](CCCCNC(=O)CN1CCN(CC(=O)O)CCN(CC(=O)O)CCN(CC(=O)O)CC1)NC(=O)CCC(=O)NCCCOCCOCCOCCCN*; X6 = NC(=O)[C@H](CCCCNC(=O)CCCC[C@@H]1SC[C@@H]2NC(=O)N[C@@H]21)NC(=O)CCC(=O)NCCCOCCOCCOCCCN*; X2 = O=C(O)CN1CCN(CC(=O)O)CCN(CC(=O)NCCCOCCOCCOCCCN*)CCN(CC(=O)O)CC1; mXylylene = c1cc(C[*:1])cc(C[*:2])c1; NMeF = CN[C@@H](Cc1ccccc1)C(=O)O; Suc = O=C(CCC(=O)[*:2])[*:1]; Nle = CCCC[C@H](N)C(=O)O; Hexanoyl = CCCCCC(=O)*; ξD = NC(CC(=O)O)C(=O)O

Assays:
[1] = target: T1, FAP-expressing human WI-38 fibroblasts (Homo sapiens, UniProt Q12884); assay: Competitive FACS binding assay
T1 construct: FAP-expressing human WI-38 fibroblasts (ECACC) were cultured in EMEM; host or cells: WI-38 human fibroblasts
T1 sequence (Q12884 1-760): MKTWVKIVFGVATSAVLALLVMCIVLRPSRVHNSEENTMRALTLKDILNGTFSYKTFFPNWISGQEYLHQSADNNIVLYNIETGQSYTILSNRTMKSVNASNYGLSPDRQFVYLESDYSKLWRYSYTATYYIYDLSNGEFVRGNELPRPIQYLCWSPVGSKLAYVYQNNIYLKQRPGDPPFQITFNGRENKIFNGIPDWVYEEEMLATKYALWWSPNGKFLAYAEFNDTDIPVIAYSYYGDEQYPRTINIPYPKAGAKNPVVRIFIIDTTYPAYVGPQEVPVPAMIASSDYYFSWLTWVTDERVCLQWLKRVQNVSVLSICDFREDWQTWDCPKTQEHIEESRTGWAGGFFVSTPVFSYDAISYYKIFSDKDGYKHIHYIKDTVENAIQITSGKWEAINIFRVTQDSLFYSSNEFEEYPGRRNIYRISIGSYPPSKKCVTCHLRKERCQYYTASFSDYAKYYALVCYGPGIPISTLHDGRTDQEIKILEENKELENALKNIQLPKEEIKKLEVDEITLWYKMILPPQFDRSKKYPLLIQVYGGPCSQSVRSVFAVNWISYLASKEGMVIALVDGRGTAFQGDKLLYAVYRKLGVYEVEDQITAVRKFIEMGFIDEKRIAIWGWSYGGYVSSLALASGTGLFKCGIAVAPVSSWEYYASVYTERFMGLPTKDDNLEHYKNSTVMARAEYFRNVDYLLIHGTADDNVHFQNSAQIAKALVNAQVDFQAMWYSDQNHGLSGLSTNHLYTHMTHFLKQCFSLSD
Experimental: Cells were analyzed in an Attune NxT flow cytometer. […]

recombinant human PREP = target: T2, recombinant human PREP (Homo sapiens, UniProt P48147); assay: PREP protease activity assay; format: biochemical
T2 construct: purchased R&D systems 4308-SE
T2 sequence (P48147 1-710): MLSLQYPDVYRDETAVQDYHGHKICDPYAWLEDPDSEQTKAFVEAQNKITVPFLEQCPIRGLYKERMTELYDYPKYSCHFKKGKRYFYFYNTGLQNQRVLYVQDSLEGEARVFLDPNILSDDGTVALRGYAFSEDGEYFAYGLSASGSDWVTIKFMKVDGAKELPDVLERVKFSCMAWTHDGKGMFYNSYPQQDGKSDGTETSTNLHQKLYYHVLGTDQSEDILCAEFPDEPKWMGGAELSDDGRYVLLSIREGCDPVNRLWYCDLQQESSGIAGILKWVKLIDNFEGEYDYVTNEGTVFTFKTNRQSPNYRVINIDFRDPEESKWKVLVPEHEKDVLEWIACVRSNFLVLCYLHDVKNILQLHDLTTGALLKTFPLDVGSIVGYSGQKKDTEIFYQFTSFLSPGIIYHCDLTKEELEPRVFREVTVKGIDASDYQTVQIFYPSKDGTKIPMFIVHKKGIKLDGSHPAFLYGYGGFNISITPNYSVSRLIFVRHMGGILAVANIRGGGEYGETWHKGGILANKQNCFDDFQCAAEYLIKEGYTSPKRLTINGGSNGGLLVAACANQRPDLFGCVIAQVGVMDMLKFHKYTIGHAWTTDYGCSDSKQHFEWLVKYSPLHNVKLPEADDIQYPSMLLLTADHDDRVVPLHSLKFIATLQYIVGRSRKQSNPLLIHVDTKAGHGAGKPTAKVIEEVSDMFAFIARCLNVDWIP

Recombinant human DPP4 = target: T3, Recombinant human DPP4 (Homo sapiens, UniProt P27487); assay: DPP4 protease activity assay; format: biochemical
T3 construct: purchased R&D systems 9168-SE
T3 sequence (P27487 whole entry): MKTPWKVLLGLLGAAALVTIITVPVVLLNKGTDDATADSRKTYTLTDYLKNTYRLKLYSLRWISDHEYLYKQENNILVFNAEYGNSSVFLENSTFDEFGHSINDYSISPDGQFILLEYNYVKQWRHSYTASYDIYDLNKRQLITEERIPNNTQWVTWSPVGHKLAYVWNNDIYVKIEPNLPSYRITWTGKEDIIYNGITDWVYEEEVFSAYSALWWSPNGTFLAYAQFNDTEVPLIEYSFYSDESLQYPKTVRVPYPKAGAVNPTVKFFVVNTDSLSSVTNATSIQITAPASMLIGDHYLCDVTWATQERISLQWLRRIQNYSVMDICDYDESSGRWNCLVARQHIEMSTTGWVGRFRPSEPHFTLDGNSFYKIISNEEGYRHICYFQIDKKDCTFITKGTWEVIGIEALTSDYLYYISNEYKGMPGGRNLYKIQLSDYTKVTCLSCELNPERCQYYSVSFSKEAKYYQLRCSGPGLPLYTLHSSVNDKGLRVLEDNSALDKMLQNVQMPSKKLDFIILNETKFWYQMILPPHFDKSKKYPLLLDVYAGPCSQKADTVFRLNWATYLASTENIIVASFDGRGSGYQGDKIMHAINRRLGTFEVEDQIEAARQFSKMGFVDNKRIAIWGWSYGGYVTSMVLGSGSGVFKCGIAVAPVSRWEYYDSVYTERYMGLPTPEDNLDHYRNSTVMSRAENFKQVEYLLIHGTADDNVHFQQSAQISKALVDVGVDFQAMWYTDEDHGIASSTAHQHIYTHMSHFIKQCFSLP

Human recombinant FAP [2] = target: T4, Human recombinant FAP (Homo sapiens, UniProt Q12884); assay: FRET-based FAP protease activity assay; format: biochemical; design: purchased R&D systems 3715-SE
T4 sequence (Q12884 1-760): T1 sequence (Q12884 1-760)

[3] = Plasma stability assay, mouse plasma; format: in vitro ADME; conditions: 4 h incubation, 37° C., read-out: % intact compound remaining after incubation, Mouse plasma
Human recombinant FAP [4] = target: T4, Human recombinant FAP; assay: Surface plasmon resonance (Biacore) assay; format: binding
[5] = pIC50 Category (FACS), competition with 3 nM Cy5-labeled compound, WI-38 fibroblasts, 4° C., 1 hour
[6] = pIC50 Category (Activity), recombinant human FAP, FRET substrate, 37° C.

pIC50 [1, 5] | pIC50 (recombinant human PREP) | pIC50 (Recombinant human DPP4) | pIC50 (Human recombinant FAP [2]; [6]) | remaining at 4 h, 9.8 µM [3] | pKd (Human recombinant FAP [4]) | pIC50 ([1]; pIC50 (highest activity category), FACS binding) | pIC50 (Human recombinant FAP [2]; pIC50 (highest activity category), FAP activity assay) | Compound
> 8.00 | < 6.00 | < 6.00 | > 8.00 | – | – | – | – | CSCC[C@H](N)C(=O)N[C@H]1CSCc2cccc(c2)CSC[C@@H](C(=O)N[C@@H](CC(=O)O)C(=O)N[C@@H](Cc2c[nH]cn2)C(=O)N[C@@H](Cc2ccccc2)C(=O)N[C@@H](CCCNC(=N)N)C(=O)N[C@@H](CC(=O)O)C(=O)NCCCOCCOCCOCCCNC(=O)CCC(=O)N[C@@H](CCCCNC(=O)CCCC[C@@H]2SC[C@@H]3NC(=O)N[C@@H]32)C(N)=O)NC(=O)[C@H](Cc2ccccc2)NC(=O)[C@H](CCC(=O)O)NC(=O)[C@H]([C@@H](C)O)NC(=O)[C@@H]2CCCN2C(=O)[C@@H]2CCCN2C1=O [3BP-2881, H-Met-[Cys(3MeBn)-Pro-Pro-Thr-Glu-Phe-Cys]-Asp-His-Phe-Arg-Asp-Ttds-Lys(Bio)-NH2] (H-MCPPTEFCDHFRD-X6; linker 2-8 via mXylylene)
> 8.00 | < 6.00 | < 6.00 | > 8.00 | 55% | > 8.00 | – | – | CCCCCC(=O)N[C@H]1CSCc2cccc(c2)CSC[C@@H](C(=O)N[C@@H](CC(=O)O)C(=O)N[C@@H](Cc2c[nH]cn2)C(=O)N[C@@H](Cc2ccccc2)C(=O)N[C@@H](CCCNC(=N)N)C(=O)N[C@@H](CC(=O)O)C(=O)NCCCOCCOCCOCCCNC(=O)CCC(=O)N[C@@H](CCCCNC(=O)CN2CCN(CC(=O)O)CCN(CC(=O)O)CCN(CC(=O)O)CC2)C(N)=O)NC(=O)[C@H](Cc2ccccc2)NC(=O)[C@H](CCC(=O)O)NC(=O)[C@H]([C@@H](C)O)NC(=O)[C@@H]2CCCN2C(=O)[C@@H]2CCCN2C1=O [3BP-3105, Hex-[Cys(3MeBn)-Pro-Pro-Thr-Glu-Phe-Cys]-Asp-His-Phe-Arg-Asp-Ttds-Lys(DOTA)-NH2] (Hexanoyl-CPPTEFCDHFRD-X3; linker 1-7 via mXylylene)
> 8.00 | < 6.00 | < 6.00 | > 8.00 | 100% | > 8.00 | > 8.00 | > 8.00 | CSCC[C@H](NC(=O)CCC(=O)NCCCOCCOCCOCCOCCCNC(=O)CN1CCN(CC(=O)O)CCN(CC(=O)O)CCN(CC(=O)O)CC1)C(=O)N[C@H]1CSCc2cccc(c2)CSC[C@@H](C(=O)N[C@@H](CC(=O)O)C(=O)N[C@@H](Cc2c[nH]cn2)C(=O)N[C@@H](Cc2ccccc2)C(=O)N[C@@H](CCCNC(=N)N)C(=O)N[C@@H](CC(=O)O)C(N)=O)NC(=O)[C@H](Cc2ccccc2)NC(=O)[C@H](CCC(=O)O)NC(=O)[C@H]2NC(=O)[C@@H]3C(CCN3C(=O)[C@@H]3CCCN3C1=O)[C@H]2O [3BP-3168, DOTA-Ttds-Nle-[Cys(3MeBn)-Pro-Pro-Thr-Glu-Phe-Cys]-Asp-His-Phe-Arg-Asp-NH2]
> 8.00 | < 6.00 | < 6.00 | > 8.00 | 94% | > 8.00 | – | – | CCCCCC(=O)N[C@H]1CSCc2cccc(c2)CSC[C@@H](C(=O)N[C@@H](CC(=O)O)C(=O)N[C@@H](Cc2c[nH]cn2)C(=O)N(C)[C@@H](Cc2ccccc2)C(=O)N[C@@H](CCCNC(=N)N)C(=O)NCCCOCCOCCOCCCNC(=O)CCC(=O)N[C@@H](CCCCNC(=O)CN2CCN(CC(=O)O)CCN(CC(=O)O)CCN(CC(=O)O)CC2)C(N)=O)NC(=O)[C@H](Cc2ccccc2)NC(=O)[C@H](CCC(=O)O)NC(=O)[C@H]([C@@H](C)O)NC(=O)[C@@H]2CCCN2C(=O)[C@@H]2CCCN2C1=O [3BP-3275, Hex-[Cys(3MeBn)-Pro-Pro-Thr-Glu-Phe-Cys]-Asp-His-Nmf-Arg-Ttds-Lys(DOTA)-NH2] (Hexanoyl-CPPTEFCDH[NMeF]R-X3; linker 1-7 via mXylylene)
6.10 to 7.00 | < 6.00 | < 6.00 | 7.10 to 8.00 | – | – | – | – | CCCCCC(=O)N[C@H]1CSCc2cccc(c2)CSC[C@@H](C(N)=O)NC(=O)[C@H](Cc2ccccc2)NC(=O)[C@H](CCC(=O)O)NC(=O)[C@H]([C@@H](C)O)NC(=O)[C@@H]2CCCN2C(=O)[C@@H]2CCCN2C1=O [3BP-3287, Hex-[Cys(3MeBn)-Pro-Pro-Thr-Glu-Phe-Cys]-NH2] (Hexanoyl-CPPTEFC-NH2; linker 1-7 via mXylylene)
7.10 to 8.00 | < 6.00 | < 6.00 | > 8.00 | 75% | > 8.00 | – | – | CCCC[C@H](NC(=O)CCC(=O)NCCCOCCOCCOCCCNC(=O)CN1CCN(CC(=O)O)CCN(CC(=O)O)CCN(CC(=O)O)CC1)C(=O)N[C@H]1CSCc2cccc(c2)CSC[C@@H](C(=O)NC(CC(=O)O)C(N)=O)NC(=O)[C@H](Cc2ccccc2)NC(=O)[C@H](CCC(=O)O)NC(=O)[C@H]([C@@H](C)O)NC(=O)[C@@H]2CCCN2C(=O)[C@@H]2CCCN2C1=O (stereo partly drawn) [3BP-3320, DOTA-Ttds-Nle-[Cys(3MeBn)-Pro-Pro-Thr-Glu-Phe-Cys]-Asp-NH2] ({X2-Suc}-[Nle]CPPTEFC[ξD]-NH2; linker 2-8 via mXylylene)

Compound | pIC50 [1, 5] | pIC50 (recombinant human PREP) | pIC50 (Recombinant human DPP4) | pIC50 (Human recombinant FAP [2]; [6]) | remaining at 4 h, 9.8 µM [3] | pKd (Human recombinant FAP [4]) | pIC50 ([1]; pIC50 (highest activity category), FACS binding) | pIC50 (Human recombinant FAP [2]; pIC50 (highest activity category), FAP activity assay)
CCCC[C@H](NC(=O)CCC(=O)NCCCOCCOCCOCCCNC(=O)CN1CCN(CC(=O)O)CCN(CC(=O)O)CCN(CC(=O)O)CC1)C(=O)N[C@H]1CSCc2cccc(c2)CSC[C@@H](C(N)=O)NC(=O)[C@H](Cc2ccccc2)NC(=O)[C@H](CCC(=O)O)NC(=O)[C@H]([C@@H](C)O)NC(=O)[C@@H]2CCCN2C(=O)[C@@H]2CCCN2C1=O [3BP-3319, DOTA-Ttds-Nle-[Cys(3MeBn)-Pro-Pro-Thr-Glu-Phe-Cys]-NH2] ({X2-Suc}-[Nle]CPPTEFC-NH2; linker 2-8 via mXylylene) | 7.10 to 8.00 | 6.20 | < 6.00 | 7.10 to 8.00 | 100% | 7.10 to 8.00 | – | –
CCCCCC(=O)N[C@H]1CSCc2cccc(c2)CSC[C@@H](C(N)=O)NC(=O)[C@H](Cc2ccccc2)NC(=O)[C@H](CCC(N)=O)NC(=O)[C@H]([C@@H](C)O)NC(=O)[C@@H]2CCCN2C(=O)[C@@H]2CCCN2C1=O [3BP-3349, Hex-[Cys(3MeBn)-Pro-Pro-Thr-Gln-Phe-Cys]-NH2] | 7.10 to 8.00 | < 6.00 | < 6.00 | > 8.00 | – | > 8.00 | – | –
CCCCCC(=O)N[C@H]1CSCc2cccc(c2)CSC[C@@H](C(=O)N[C@@H](CC(=O)O)C(N)=O)NC(=O)[C@H](Cc2ccccc2)NC(=O)[C@H](CCC(N)=O)NC(=O)[C@H]([C@@H](C)O)NC(=O)[C@@H]2CCCN2C(=O)[C@@H]2CCCN2C1=O [3BP-3476, Hex-[Cys(3MeBn)-Pro-Pro-Thr-Gln-Phe-Cys]-Asp-NH2] (Hexanoyl-CPPTQFCD-NH2; linker 1-7 via mXylylene) | > 8.00 | < 6.00 | < 6.00 | > 8.00 | – | > 8.00 | – | –
